Assay results reported in patent US10329254B2, “Process for the preparation of 6-chloro-2,3,4,9-tetrahydro-1H-carbazole-1-carboxamide and intermediates thereof” (AOP ORPHAN PHARMACEUTICALS AG, priority 2011, dated 2019).

Assays:
[1] = target: T1, Sirt1 (Homo sapiens, UniProt Q96EB6); conditions: known from WO2005026112; cited from earlier work
T1 sequence (Q96EB6 1-747): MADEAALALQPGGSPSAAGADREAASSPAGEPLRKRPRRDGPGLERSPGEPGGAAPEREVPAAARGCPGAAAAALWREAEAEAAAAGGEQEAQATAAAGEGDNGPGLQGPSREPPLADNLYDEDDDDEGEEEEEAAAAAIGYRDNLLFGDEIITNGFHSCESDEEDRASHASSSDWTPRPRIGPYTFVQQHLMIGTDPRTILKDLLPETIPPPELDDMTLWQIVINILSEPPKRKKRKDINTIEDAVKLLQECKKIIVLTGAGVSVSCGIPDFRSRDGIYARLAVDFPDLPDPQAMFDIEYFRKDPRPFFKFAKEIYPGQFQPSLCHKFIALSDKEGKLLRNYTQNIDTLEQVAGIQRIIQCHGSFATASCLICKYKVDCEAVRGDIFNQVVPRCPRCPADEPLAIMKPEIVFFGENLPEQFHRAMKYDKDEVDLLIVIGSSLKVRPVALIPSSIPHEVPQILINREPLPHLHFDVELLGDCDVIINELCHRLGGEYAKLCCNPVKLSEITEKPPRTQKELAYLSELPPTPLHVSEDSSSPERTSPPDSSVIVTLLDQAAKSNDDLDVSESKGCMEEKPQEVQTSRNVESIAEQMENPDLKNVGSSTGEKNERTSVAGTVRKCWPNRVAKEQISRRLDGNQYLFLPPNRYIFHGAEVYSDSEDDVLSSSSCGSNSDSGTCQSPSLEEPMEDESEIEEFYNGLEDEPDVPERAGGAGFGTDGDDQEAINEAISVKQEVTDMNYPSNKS

[2] = Form A stability tests under simulated drug substance storage conditions; assay type: physicochemical
Method: Tables 3 and 4: Form A stability data: Compound (I) in the form of Form A was packed in double bagged polythene bags (fastened with cable/security ties) and placed inside 3.6 L Curtec kegs (HDPE) to simulate typical drug substance storage conditions. Stability tests were performed at 40° C./75% RH (table 3) and 25° C./60% RH (table 4).

[3] = Hygroscopicity (absorption-desorption spectrum); assay type: physicochemical; conditions: FIG. 2 / FIG. 7
Text: FIG. 2: Absorption-Desorption spectrum of form A FIG. 7: Absorption-desorption spectrum of form B

Question: With `NC(=O)C1CCCc2c1[nH]c1ccc(Cl)cc21` (racemic) [Compound (I), rac-6-Chloro-2,3,4,9-tetrahydro-1H-carbazole-1-carboxamide] as the compound, how does the “anti Sirt1 activity” value [1] read?
Answer: anti Sirt1 activity

Question: Which “DSC (conforms to polymorph A)” value ([2]; 25° C./60% RH, t = 0) does the source give for `NC(=O)C1CCCc2c1[nH]c1ccc(Cl)cc21` (centres unmarked) [Form A, 6-Chloro-2,3,4,9-tetrahydro-1H-carbazole-1-carboxamide] here?
Answer: Conforms

Question: What about the “Impurity content (by HPLC), no single impurity greater than 0.50% area” value ([2]; 25° C./60% RH, t = 0) of the same compound?
Answer: Conforms

Question: What about the “XRPD (conforms to polymorph)” value ([2]; 25° C./60% RH, t = 0) of the same compound?
Answer: Conforms

Question: What about the “Assay (by HPLC)” value ([2]; 25° C./60% RH, t = 0, on an anhydrous and solvent free basis, spec 98.0-102.0% w/w) of the same compound?
Answer: 99.7% w/w

Question: What about the “Water content (by KF titration)” value ([2]; 25° C./60% RH, t = 0, spec: not more than 0.5% w/w) of the same compound?
Answer: <0.1% w/w

Question: And the “Impurity content (by HPLC), total impurities” value ([2]; 25° C./60% RH, t = 0, spec: not more than 2.0% area)?
Answer: 0.31% area

Question: What about the Description ([2]; 25° C./60% RH, t = 0, spec: white to off-white solid) of the same compound?
Answer: Off-white

Question: What about the “Assay (by HPLC)” value ([2]; 25° C./60% RH, t = 1 month) of the same compound?
Answer: 99.0% w/w

Question: What about the Description ([2]; 25° C./60% RH, t = 1 month) of the same compound?
Answer: Off-white

Question: What about the “Impurity content (by HPLC), no single impurity greater than 0.50% area” value ([2]; 25° C./60% RH, t = 1 month) of the same compound?
Answer: Conforms

Question: And the “Impurity content (by HPLC), total impurities” value ([2]; 25° C./60% RH, t = 1 month)?
Answer: 0.54% area

Question: And the “Water content (by KF titration)” value ([2]; 25° C./60% RH, t = 1 month)?
Answer: <0.1% w/w

Question: What about the “Assay (by HPLC)” value ([2]; 25° C./60% RH, t = 3 months) of the same compound?
Answer: 99.1% w/w

Question: What about the Description ([2]; 25° C./60% RH, t = 3 months) of the same compound?
Answer: Off-white

Question: What about the “Impurity content (by HPLC), no single impurity greater than 0.50% area” value ([2]; 25° C./60% RH, t = 3 months) of the same compound?
Answer: Conforms

Question: What about the “Impurity content (by HPLC), total impurities” value ([2]; 25° C./60% RH, t = 3 months) of the same compound?
Answer: 0.22% area

Question: And the “Water content (by KF titration)” value ([2]; 25° C./60% RH, t = 3 months)?
Answer: 0.2% w/w

Question: And the “Assay (by HPLC)” value ([2]; 25° C./60% RH, t = 6 months)?
Answer: 98.7% w/w

Question: What about the “DSC (conforms to polymorph A)” value ([2]; 25° C./60% RH, t = 6 months) of the same compound?
Answer: Conforms

Question: And the Description ([2]; 25° C./60% RH, t = 6 months)?
Answer: Off-white

Question: And the “Impurity content (by HPLC), no single impurity greater than 0.50% area” value ([2]; 25° C./60% RH, t = 6 months)?
Answer: Conforms

Question: And the “Impurity content (by HPLC), total impurities” value ([2]; 25° C./60% RH, t = 6 months)?
Answer: 0.32% area

Question: And the “Water content (by KF titration)” value ([2]; 25° C./60% RH, t = 6 months)?
Answer: 0.1% w/w

Question: And the “XRPD (conforms to polymorph)” value ([2]; 25° C./60% RH, t = 6 months)?
Answer: Conforms

Question: And the “Assay (by HPLC)” value ([2]; 25° C./60% RH, t = 9 months)?
Answer: 99.4% w/w

Question: And the Description ([2]; 25° C./60% RH, t = 9 months)?
Answer: Off-white

Question: What about the “Impurity content (by HPLC), no single impurity greater than 0.50% area” value ([2]; 25° C./60% RH, t = 9 months) of the same compound?
Answer: Conforms

Question: What about the “Impurity content (by HPLC), total impurities” value ([2]; 25° C./60% RH, t = 9 months) of the same compound?
Answer: 0.29% area

Question: And the “Water content (by KF titration)” value ([2]; 25° C./60% RH, t = 9 months)?
Answer: <0.1% w/w

Question: And the “Assay (by HPLC)” value ([2]; 25° C./60% RH, t = 12 months)?
Answer: 99.0% w/w

Question: And the “DSC (conforms to polymorph A)” value ([2]; 25° C./60% RH, t = 12 months)?
Answer: Conforms

Question: What about the Description ([2]; 25° C./60% RH, t = 12 months) of the same compound?
Answer: Off-white

Question: And the “Impurity content (by HPLC), no single impurity greater than 0.50% area” value ([2]; 25° C./60% RH, t = 12 months)?
Answer: Conforms

Question: What about the “Impurity content (by HPLC), total impurities” value ([2]; 25° C./60% RH, t = 12 months) of the same compound?
Answer: 0.27% area

Question: And the “Water content (by KF titration)” value ([2]; 25° C./60% RH, t = 12 months)?
Answer: 0.1% w/w

Question: What about the “XRPD (conforms to polymorph)” value ([2]; 25° C./60% RH, t = 12 months) of the same compound?
Answer: Conforms

Question: What about the “Assay (by HPLC)” value ([2]; 25° C./60% RH, t = 18 months) of the same compound?
Answer: 98.6% w/w

Question: And the Description ([2]; 25° C./60% RH, t = 18 months)?
Answer: Off-white

Question: What about the “Impurity content (by HPLC), no single impurity greater than 0.50% area” value ([2]; 25° C./60% RH, t = 18 months) of the same compound?
Answer: Conforms

Question: And the Impurity content (by HPLC), total impurities ([2]; 25° C./60% RH, t = 18 months)?
Answer: 0.26 % area

Question: And the “Water content (by KF titration)” value ([2]; 25° C./60% RH, t = 18 months)?
Answer: 0.1% w/w

Question: What about the “Assay (by HPLC)” value ([2]; 25° C./60% RH, t = 24 months) of the same compound?
Answer: 98.2% w/w

Question: And the “DSC (conforms to polymorph A)” value ([2]; 25° C./60% RH, t = 24 months)?
Answer: Conforms

Question: And the Description ([2]; 25° C./60% RH, t = 24 months)?
Answer: Off-white

Question: And the “Impurity content (by HPLC), no single impurity greater than 0.50% area” value ([2]; 25° C./60% RH, t = 24 months)?
Answer: Conforms

Question: What about the “Impurity content (by HPLC), total impurities” value ([2]; 25° C./60% RH, t = 24 months) of the same compound?
Answer: 0.39% area

Question: What about the “Water content (by KF titration)” value ([2]; 25° C./60% RH, t = 24 months) of the same compound?
Answer: <0.1% w/w

Question: And the “XRPD (conforms to polymorph)” value ([2]; 25° C./60% RH, t = 24 months)?
Answer: Conforms

Question: And the “DSC (conforms to polymorph A)” value ([2]; 40° C./75% RH, t = 0)?
Answer: Conforms

Question: And the “Impurity content (by HPLC), no single impurity greater than 0.50% area” value ([2]; 40° C./75% RH, t = 0)?
Answer: Conforms

Question: And the “XRPD (conforms to polymorph A)” value ([2]; 40° C./75% RH, t = 0)?
Answer: Conforms

Question: And the “Assay (by HPLC)” value ([2]; 40° C./75% RH, t = 0, anhydrous and solvent free-basis, spec 98.0-102.0% w/w)?
Answer: 99.7% w/w

Question: And the “Water content (by KF titration)” value ([2]; 40° C./75% RH, t = 0, spec: not more than 0.5% w/w)?
Answer: <0.1% w/w

Question: What about the “Impurity content (by HPLC), total impurities” value ([2]; 40° C./75% RH, t = 0, spec: not more than 2.0% area) of the same compound?
Answer: 0.31% area

Question: And the Description ([2]; 40° C./75% RH, t = 0, spec: white to off-white solid)?
Answer: Off-white

Question: What about the Description ([2]; 40° C./75% RH, t = 1 month) of the same compound?
Answer: Off-white

Question: And the “Impurity content (by HPLC), no single impurity greater than 0.50% area” value ([2]; 40° C./75% RH, t = 1 month)?
Answer: Conforms

Question: What about the “Impurity content (by HPLC), total impurities” value ([2]; 40° C./75% RH, t = 1 month) of the same compound?
Answer: 0.25% area

Question: And the “Water content (by KF titration)” value ([2]; 40° C./75% RH, t = 1 month)?
Answer: <0.1% w/w

Question: And the “Assay (by HPLC)” value ([2]; 40° C./75% RH, t = 1 month, anhydrous and solvent free-basis)?
Answer: 98.9% w/w

Question: What about the Description ([2]; 40° C./75% RH, t = 3 months) of the same compound?
Answer: Off-white

Question: And the “Impurity content (by HPLC), no single impurity greater than 0.50% area” value ([2]; 40° C./75% RH, t = 3 months)?
Answer: Conforms

Question: And the “Impurity content (by HPLC), total impurities” value ([2]; 40° C./75% RH, t = 3 months)?
Answer: 0.25% area

Question: What about the “Water content (by KF titration)” value ([2]; 40° C./75% RH, t = 3 months) of the same compound?
Answer: 0.4% w/w

Question: What about the “Assay (by HPLC)” value ([2]; 40° C./75% RH, t = 3 months, anhydrous and solvent free-basis) of the same compound?
Answer: 99.4% w/w

Question: What about the Description ([2]; 40° C./75% RH, t = 6 months) of the same compound?
Answer: Off-white

Question: And the “Impurity content (by HPLC), no single impurity greater than 0.50% area” value ([2]; 40° C./75% RH, t = 6 months)?
Answer: Conforms

Question: What about the “Impurity content (by HPLC), total impurities” value ([2]; 40° C./75% RH, t = 6 months) of the same compound?
Answer: 0.33% area

Question: And the “Water content (by KF titration)” value ([2]; 40° C./75% RH, t = 6 months)?
Answer: 0.1% w/w

Question: And the “XRPD (conforms to polymorph A)” value ([2]; 40° C./75% RH, t = 6 months)?
Answer: Conforms

Question: What about the “Assay (by HPLC)” value ([2]; 40° C./75% RH, t = 6 months, anhydrous and solvent free-basis) of the same compound?
Answer: 99.0% w/w

Question: And the Stability over time ([2]; Tables 3 and 4 (40° C./75% RH and 25° C./60% RH))?
Answer: stable over time

Question: For `NC(=O)C1CCCc2c1[nH]c1ccc(Cl)cc21` (centres unmarked) [Form B, 6-Chloro-2,3,4,9-tetrahydro-1H-carbazole-1-carboxamide], which Hygroscopicity [3] is on record?
Answer: non hygroscopic
